Experimental data as given in patent US12446582B2 (priority 2018, dated 2025).
Entries after “also recorded” stand apart in the source; their conditions may differ. Read-outs that look alike come from different tables or passages of the source.

System: Fusarium pseudograminearum
[1] = average of 5 trials, compared to untreated T1
[2] = average of 5 trials, compared to untreated T1, listed as T2
[3] = average of 5 trials, untreated T1 = 100.00

Method: 5 wheat trial locations were selected across the main wheat growing areas of Australia. All five sites have a history of crown rot and high stubble load coming out of susceptible rotation crop. Soil samples were taken to confirm the pathogen pressure. The seeds were treated with a Rotostat Seed Treater with 800 ml slurry volume per 100 kg of seeds. Planting for the trials took place between 2 June and 14 June using a 6 to 8 row planter. The number of plants was counted 35-65 days after sowing on 2×5 m row. The number of wheat plants with white heads per plot was assessed at full ripe and recorded as % compared to the untreated plants which were taken as reference. Yield grain data was taken at the end of the season.

In the case of `O=C(NC1CCC1c1ccc(Cl)cc1Cl)c1cccnc1C(F)(F)F` (stereo not drawn) [Compound 1], the “Final emergence counts % increase compared to T1” value [1] is reported as 7.52%, the “Plot yields % increase compared to T1” value [1] is reported as 26% and the “White heads % reduction compared to T1” value [1] is reported as 34%. The “Plot yields % increase compared to T1” value [2] was 26.32%, the “White heads % reduction compared to T1” value [2] was 34.20% and the “White heads Average” value (average of 5 trials, % compared to untreated T1 = 100.00) was 66.80%. For the same molecule, the “Final emergence counts Average” value [3] was 107.52, the “Plot yields Average” value [3] was 126.32 and the “White heads AR0T020” value (trial AR0T020, Merredin, WA, variety Cobra, seed treatment, % compared to untreated T1 = 100.00, at full ripe) was 32.86%. The “Plot yields AR0T020” value (trial AR0T020, Merredin, WA, variety Cobra, seed treatment, full plot harvest, untreated T1 = 100.00) was 127.83, the “Final emergence counts AR0T020” value (trial AR0T020, Merredin, WA, variety Cobra, seed treatment, untreated T1 = 100.00) was 101.87 and the “White heads AR0T021” value (trial AR0T021, Tammin, WA, variety Cobra, seed treatment, % compared to untreated T1 = 100.00, at full ripe) was 28.45%. For the same molecule, the “Plot yields AR0T021” value (trial AR0T021, Tammin, WA, variety Cobra, seed treatment, full plot harvest, untreated T1 = 100.00) was 107.62, the “Final emergence counts AR0T021” value (trial AR0T021, Tammin, WA, variety Cobra, seed treatment, untreated T1 = 100.00) was 118.36 and the “White heads DL0T013” value (trial DL0T013, Bunnaloo, NSW, variety Aurora (Durum), seed treatment, % compared to untreated T1 = 100.00, at full ripe) was 92.59%. The “Plot yields DL0T013” value (trial DL0T013, Bunnaloo, NSW, variety Aurora (Durum), seed treatment, full plot harvest, untreated T1 = 100.00) was 116.90, the “Final emergence counts DL0T013” value (trial DL0T013, Bunnaloo, NSW, variety Aurora (Durum), seed treatment, untreated T1 = 100.00) was 100.80 and the “White heads GS0T007” value (trial GS0T007, Redhill, SA, variety Saintly (Durum), seed treatment, % compared to untreated T1 = 100.00, at full ripe) was 74.52%. The “Plot yields GS0T007” value (trial GS0T007, Redhill, SA, variety Saintly (Durum), seed treatment, full plot harvest, untreated T1 = 100.00) was 162.86, the “Final emergence counts GS0T007” value (trial GS0T007, Redhill, SA, variety Saintly (Durum), seed treatment, untreated T1 = 100.00) was 113.09 and the “White heads N10T669” value (trial N10T669, Bellata, NSW, variety Lillaroi (Durum), seed treatment, % compared to untreated T1 = 100.00, at full ripe) was 105.57%. For the same molecule, the “Plot yields N10T669” value (trial N10T669, Bellata, NSW, variety Lillaroi (Durum), seed treatment, full plot harvest, untreated T1 = 100.00) was 116.41, the “Final emergence counts N10T669” value (trial N10T669, Bellata, NSW, variety Lillaroi (Durum), seed treatment, untreated T1 = 100.00) was 103.48 and the “yield increase compared to other commercial treatments (in words)” value (wheat seed treatment, compared to commercial treatments T3-T5) was “more than double; also recorded: more than twice as much”.
